The structures appear in SMILES notation. Where two headings read alike, the source gives them in different places.

The target of experiment [1] is T1, wild-type ALK2 (aa172-499) (Homo sapiens (Human), UniProt Q04771). Description: ADPGlo biochemical autophosphorylation assay, ALK2. The conditions noted are these: 15 μm ATP, 60 min at 32° C. Background: ADP-Glo turns the ADP formed in a reaction into a luminescent signal.
Experiment [2] addresses ALK3 (aa198-525) (Homo sapiens (Human), UniProt P36894). Description: ADPGlo biochemical autophosphorylation assay, ALK3. Conditions: 15 μm ATP, 60 min at 32° C.
In experiment [3] the target is T1, wild-type ALK2 (aa172-499). The experiment in a line: Caliper biochemical peptide phosphorylation assay, ALK2. Conditions: 15 μm ATP, 60 min at 30° C.; read-out: ALK2 EPK (IC50).
The target of experiment [4] is ALK1 (aa166-493) (Homo sapiens (Human), UniProt P37023). Description: Caliper biochemical peptide phosphorylation assay, ALK1. Conditions: 15 μm ATP, 60 min at 30° C.; read-out: ALK1 EPK (IC50).
Chain of ALK1 (aa166-493) (P37023 166-493): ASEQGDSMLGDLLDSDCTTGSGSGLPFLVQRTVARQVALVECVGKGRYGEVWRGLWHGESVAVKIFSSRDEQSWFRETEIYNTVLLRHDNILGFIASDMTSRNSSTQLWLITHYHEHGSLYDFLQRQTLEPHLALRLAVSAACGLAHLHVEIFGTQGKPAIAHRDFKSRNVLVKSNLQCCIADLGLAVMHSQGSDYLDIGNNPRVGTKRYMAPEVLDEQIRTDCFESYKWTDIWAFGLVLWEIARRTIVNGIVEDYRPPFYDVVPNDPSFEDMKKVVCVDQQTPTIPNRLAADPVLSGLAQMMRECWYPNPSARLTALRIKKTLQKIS
In experiment [5] the target is ALK5 (aa162-503) (Homo sapiens (Human), UniProt P36897). The experiment in a line: Caliper biochemical peptide phosphorylation assay, ALK5. Conditions: 15 μm ATP, 60 min at 30° C.; read-out: ALK5 EPK (IC50).
Chain of ALK5 (aa162-503) (P36897 162-503): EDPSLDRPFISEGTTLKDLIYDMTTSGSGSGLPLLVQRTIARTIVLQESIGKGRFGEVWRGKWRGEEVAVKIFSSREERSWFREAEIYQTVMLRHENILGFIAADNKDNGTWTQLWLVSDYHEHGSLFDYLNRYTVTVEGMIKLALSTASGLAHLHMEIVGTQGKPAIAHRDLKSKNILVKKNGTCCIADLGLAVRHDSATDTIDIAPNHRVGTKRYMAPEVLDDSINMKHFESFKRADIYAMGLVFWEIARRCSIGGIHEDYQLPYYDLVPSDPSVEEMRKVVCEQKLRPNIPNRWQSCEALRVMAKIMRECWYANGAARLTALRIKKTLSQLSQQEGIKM
Experiment [6] addresses ALK6 (aa168-495) (Homo sapiens (Human), UniProt O00238). The experiment in a line: Caliper biochemical peptide phosphorylation assay, ALK6. Conditions: 15 μm ATP, 60 min at 30° C.; read-out: ALK6 EPK (IC50).
For experiment [7], the system named is BMP response element (BRE) luciferase reporter in HuH7 cells, BMP6 stimulated. The experiment in a line: BMP signaling reporter gene assay. The format is cell-based. The conditions noted are these: Homo sapiens, read-out: MSD BMP RGA IC50. Background: Reporter assays use an easily measured gene product as a stand-in for the process of interest.
The mark [8] stands for this setting: Huh-7, HuH7 BRE-luciferase, BMP6 100 ng/ml, 5 hours.

Chain of ALK3 (aa198-525) (P36894 198-525): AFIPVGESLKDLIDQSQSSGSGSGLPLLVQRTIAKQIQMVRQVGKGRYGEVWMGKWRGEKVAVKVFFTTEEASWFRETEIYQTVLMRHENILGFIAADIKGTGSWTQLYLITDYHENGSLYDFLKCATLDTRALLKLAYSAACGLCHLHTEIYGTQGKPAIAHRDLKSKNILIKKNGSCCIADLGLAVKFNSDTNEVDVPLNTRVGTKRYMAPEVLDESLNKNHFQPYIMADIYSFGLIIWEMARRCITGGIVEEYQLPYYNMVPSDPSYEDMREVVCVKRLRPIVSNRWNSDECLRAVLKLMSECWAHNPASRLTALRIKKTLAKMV
T1 sequence (Q04771 172-499): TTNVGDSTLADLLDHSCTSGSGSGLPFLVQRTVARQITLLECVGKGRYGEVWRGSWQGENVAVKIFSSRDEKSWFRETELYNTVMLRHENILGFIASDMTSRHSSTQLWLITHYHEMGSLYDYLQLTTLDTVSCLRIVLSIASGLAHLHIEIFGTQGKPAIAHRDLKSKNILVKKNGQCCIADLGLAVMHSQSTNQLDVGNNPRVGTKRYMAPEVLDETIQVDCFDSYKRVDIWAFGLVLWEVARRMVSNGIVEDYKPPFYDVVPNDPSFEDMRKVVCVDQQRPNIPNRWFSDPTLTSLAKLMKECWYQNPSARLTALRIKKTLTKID
Chain of ALK6 (aa168-495) (O00238 168-495): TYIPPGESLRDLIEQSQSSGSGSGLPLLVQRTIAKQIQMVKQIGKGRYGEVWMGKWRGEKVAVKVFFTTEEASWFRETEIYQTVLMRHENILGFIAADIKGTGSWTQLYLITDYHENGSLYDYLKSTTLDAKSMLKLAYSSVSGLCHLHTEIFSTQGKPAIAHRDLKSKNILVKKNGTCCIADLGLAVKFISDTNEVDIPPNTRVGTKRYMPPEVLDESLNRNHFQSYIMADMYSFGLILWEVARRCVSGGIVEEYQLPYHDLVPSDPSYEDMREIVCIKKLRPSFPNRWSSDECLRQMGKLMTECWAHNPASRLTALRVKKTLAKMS

As usually defined, the IC50 is the point on the concentration scale where inhibition reaches its midpoint. With `Nc1ncc(-c2ccc(CN3CC4(CCC4)C3)cc2)cc1C(=O)N[C@H]1CC[C@H](O)CC1` [Example 23, 5-(4-(2-azaspiro[3.3]heptan-2-ylmethyl)phenyl)-2-amino-N-((1r,4r)-4-hydroxycyclohexyl)nicotinamide], the IC50 in experiment [1] amounted to 9 nM; in experiment [2] it was 1600 nM; in experiment [3], 18 nM; in experiment [4] it was 250 nM; in experiment [5] it was 2700 nM; in experiment [6] it was 2400 nM. Also, the IC50 in experiment [7] (Huh-7, 5 h) was determined as 23 nM.

Regarding `CC(C)N1C[C@H]2C[C@@]2(c2ccc(-c3cnc(N)c(C(=O)N[C@H]4CC[C@](C)(O)CC4)c3)cc2)C1` [Example 24, 2-amino-N-((1r,4R)-4-hydroxy-4-methylcyclohexyl)-5-(4-((1R,5S)-3-isopropyl-3-azabicyclo[3.1.0]hexan-1-yl)phenyl)nicotinamide], the IC50 stood at 11 nM in experiment [1]; 6480 nM in experiment [2]; 16 nM in experiment [3]; 543 nM in experiment [4]; 6800 nM in experiment [5]; 7300 nM in experiment [6]. The IC50 in experiment [7] (setting [8]) amounted to 81 nM.

On to `Nc1ncc(-c2ccc([C@]34C[C@H]3CN(C3COC3)C4)cc2)cc1C(=O)N[C@H]1CC[C@H](O)CC1` [Example 26, 2-amino-N-((1r,4S)-4-hydroxycyclohexyl)-5-(4-((1S,5R)-3-(oxetan-3-yl)-3-azabicyclo[3.1.0]hexan-1-yl)phenyl)nicotinamide], for which the IC50 is 18 nM in experiment [1]; 1700 nM in experiment [2]; 18 nM in experiment [3]; 230 nM in experiment [4]; 4300 nM in experiment [5]; 2500 nM in experiment [6]. The IC50 in experiment [7] (setting [8]) is 110 nM.

With `Nc1ncc(-c2ccc([C@]34C[C@H]3CN(C3CCOCC3)C4)cc2)cc1C(=O)NC12CC(CO)(C1)C2` [Example 28, 2-amino-N-(3-(hydroxymethyl)bicyclo[1.1.1]pentan-1-yl)-5-(4-((1S,5R)-3-(tetrahydro-2H-pyran-4-yl)-3-azabicyclo[3.1.0]hexan-1-yl)phenyl)nicotinamide], the IC50 in experiment [1] worked out at 11 nM; in experiment [2], 530 nM; in experiment [3] it was 18 nM; in experiment [4], 250 nM; in experiment [5], 9400 nM; in experiment [6] it was 3300 nM. In experiment [7] (setting [8]), the IC50 was determined as 17 nM.

Regarding `Nc1ncc(-c2ccc(N3CCNCC3)cc2F)cc1C(=O)N[C@H]1CC[C@H](O)CC1` [Example 29, 2-amino-5-(2-fluoro-4-(piperazin-1-yl)phenyl)-N-((1r,4r)-4-hydroxycyclohexyl)nicotinamide], the IC50 in experiment [1] was determined as 22 nM; in experiment [2], 2500 nM; in experiment [3], 20 nM; in experiment [4], 280 nM; in experiment [5], 4000 nM; in experiment [6] it was 4000 nM. Also, the IC50 in experiment [7] (setting [8]) worked out at 685 nM.

Consider `Nc1ncc(-c2ccc([C@@]34C[C@@H]3CN(C3CCOCC3)C4)cc2)cc1C(=O)NC12CC(CO)(C1)C2` [Example 30, 2-amino-N-(3-(hydroxymethyl)bicyclo[1.1.1]pentan-1-yl)-5-(4-((1R,5S)-3-(tetrahydro-2H-pyran-4-yl)-3-azabicyclo[3.1.0]hexan-1-yl)phenyl)nicotinamide], for which the IC50 worked out at 7 nM in experiment [1]; 500 nM in experiment [2]; 22 nM in experiment [3]; 210 nM in experiment [4]; 4000 nM in experiment [5]; 2800 nM in experiment [6]. In experiment [7] (setting [8]), the IC50 is 68 nM.

For the compound `C[C@@H]1CCCN1Cc1ccc(-c2cnc(N)c(C(=O)N[C@H]3CC[C@H](O)CC3)c2)cc1` [Example 31, 2-amino-N-((1r,4R)-4-hydroxycyclohexyl)-5-(4-(((R)-2-methylpyrrolidin-1-yl)methyl)phenyl)nicotinamide], the half-maximal inhibitory concentration (IC50) amounted to 13 nM in experiment [1]; 1200 nM in experiment [2]; 20 nM in experiment [3]; 230 nM in experiment [4]; 3500 nM in experiment [5]; 4500 nM in experiment [6]. In addition, in experiment [7] (setting [8]), the IC50 turned out to be 115 nM.

As for `CC(C)N1C[C@@H]2C[C@]2(c2ccc(-c3cnc(N)c(C(=O)N[C@H]4CC[C@](C)(O)CC4)c3)cc2)C1` [Example 32, 2-amino-N-((1r,4S)-4-hydroxy-4-methylcyclohexyl)-5-(4-((1S,5R)-3-isopropyl-3-azabicyclo[3.1.0]hexan-1-yl)phenyl)nicotinamide], the IC50 came out at 22 nM in experiment [1]; 12700 nM in experiment [2]; 20 nM in experiment [3]; 743 nM in experiment [4]; 3200 nM in experiment [5]; 3300 nM in experiment [6]. In experiment [7] (setting [8]), the IC50 was 93 nM.

As for `Nc1ncc(-c2ccc([C@@]34C[C@@H]3CN(C3CCOCC3)C4)cc2)cc1C(=O)NC12CCC(O)(CC1)CC2` [Example 34, 2-amino-N-(4-hydroxybicyclo[2.2.2]octan-1-yl)-5-(4-((1R,5S)-3-(tetrahydro-2H-pyran-4-yl)-3-azabicyclo[3.1.0]hexan-1-yl)phenyl)nicotinamide], the IC50 in experiment [1] is 18 nM; in experiment [2] it was 914 nM; in experiment [3] it was 23 nM; in experiment [4], 323 nM; in experiment [5], 6280 nM; in experiment [6], 3300 nM. In addition, the IC50 in experiment [7] (setting [8]) came out at 49 nM.

Turning to `Nc1ncc(-c2ccc([C@]34C[C@H]3CN(C3CCC(F)(F)CC3)C4)cc2)cc1C(=O)NC12CCC(O)(CC1)CC2` [Example 35, 2-amino-5-(4-((1S,5R)-3-(4,4-difluorocyclohexyl)-3-azabicyclo[3.1.0]hexan-1-yl)phenyl)-N-(4-hydroxybicyclo[2.2.2]octan-1-yl)nicotinamide], the IC50 in experiment [1] turned out to be 17 nM; in experiment [2], 903 nM; in experiment [3] it was 21 nM; in experiment [4] it was 283 nM; in experiment [5], 5720 nM; in experiment [6], 4500 nM. In addition, the IC50 in experiment [7] (setting [8]) stood at 73 nM.

Consider `CC(C)N1C[C@H]2C[C@@]2(c2ccc(-c3cnc(N)c(C(=O)NC45CC(CO)(C4)C5)c3)cc2)C1` [Example 36, 2-amino-N-(3-(hydroxymethyl)bicyclo[1.1.1]pentan-1-yl)-5-(4-((1R,5S)-3-isopropyl-3-azabicyclo[3.1.0]hexan-1-yl)phenyl)nicotinamide], for which the IC50 in experiment [1] worked out at 16 nM; in experiment [2], 1450 nM; in experiment [3] it was 23 nM; in experiment [4] it was 295 nM; in experiment [5] it was 10000 nM; in experiment [6] it was 7200 nM. In experiment [7] (setting [8]), the concentration for half-maximal inhibition (IC50) was 43 nM.

Regarding `CC#CCN1C[C@@H]2C[C@]2(c2ccc(-c3cnc(N)c(C(=O)N[C@H]4CC[C@H](O)CC4)c3)cc2)C1` [Example 37, 2-amino-5-(4-((1S,5R)-3-(but-2-yn-1-yl)-3-azabicyclo[3.1.0]hexan-1-yl)phenyl)-N-((1r,4S)-4-hydroxycyclohexyl)nicotinamide], the IC50 was determined as 8 nM in experiment [1]; 960 nM in experiment [2]; 27 nM in experiment [3]; 100 nM in experiment [4]; 1100 nM in experiment [5]; 1700 nM in experiment [6]. Besides, the IC50 in experiment [7] (setting [8]) worked out at 37 nM.

The values are drawn from US10710980B2, “Aminopyridine derivatives and their use as selective ALK-2 inhibitors” (priority 2016, dated 2020).
